Measurements from patent US8791048B2, “Herbicidal compositions comprising 4-amino-3-chloro-5-fluoro-6-(4-chloro-2-fluoro-3-methoxyphenyl) pyridine-2-carboxylic acid or a derivative thereof and clomazone” (Dow Agrosciences LLC, priority 2012, dated 2014).

Assays:
Assay type in all cases: in vivo
[1] = tested on: ECHCO Echinochloa colona (L.) Link; junglerice; test: Postemergence foliar-applied greenhouse trial, weed control in direct-seeded rice
From the text: (§1) Results in Examples I and II are greenhouse trial results.
(§2) Seeds or nutlets of the desired test plant species were planted in a soil matrix prepared by mixing a loam or sandy loam soil (e.g., 28.6 percent silt, 18.8 percent clay, and 52.6 percent sand, with a pH of about 5.8 and an organic matter content of about 1.8 percent) and calcareous grit in an 80 to 20 ratio. The soil matrix was contained in plastic pots with a volume of 1 quart and a surface area of 83.6 square centimeters (cm^2). When required to ensure good germination and healthy plants, a fungicide treatment and/or other chemical or physical treatment was applied. The plants were grown for 8-22 days in a greenhouse with an approximate 14 h photoperiod which was maintained at about 29° C. during the day and 26° C. during the night. Nutrients (Peters Excel® 15-5-15 5-Ca 2-Mg and iron chelate) were applied in the irrigation solution as needed and water was added on a regular basis. Supplemental lighting was provided with overhead metal halide 1000-Watt lamps as necessary. The plants were employed for testing when they reached the first through fourth true leaf stage.
(§3) Treatments consisted of the acid or esters of 4-amino-3-chloro-5-fluoro-6-(4-chloro-2-fluoro-3-methoxy-phenyl)pyridine-2-carboxylic acid (Compound A), each formulated as an SC (suspension concentrate), and various herbicidal components alone and in combination. Forms of compound A were applied on an acid equivalent basis.
(§4) Other herbicidal components were applied on an active ingredient basis and consisted of clomazone formulated as Command® 3ME. Treatment requirements were calculated based upon the rates being tested, the concentration of active ingredient or acid equivalent in the formulation, and a 12 mL application volume at a rate of 187 L/ha.
(§5) For treatments comprised of formulated compounds, measured amounts of compounds were placed individually in 25 mL glass vials and diluted in a volume of 1.25% (v/v) Agri-Dex® crop oil concentrated to obtain 12× stock solutions. […] Application solutions were prepared by adding an appropriate amount of each stock solution (e.g., 1 mL) and diluted to the appropriate final concentrations with the addition of 10 mL of an aqueous mixture of 1.25% (v/v) crop oil concentrate so that the final spray solutions contained 1.25+/−0.05% (v/v) crop oil concentrate.
(§6) All stock solutions and applications solutions were visually inspected for compound compatibility prior to application. Spray solutions were applied to the plant material with an overhead Mandel track sprayer equipped with a 8002E nozzles calibrated to deliver 187 L/ha over an application area of 0.503 m^2 at a spray height of 18 to 20 inches (46 to 50 cm) above average plant canopy height. Control plants were sprayed in the same manner with the solvent blank.
(§7) The treated plants and control plants were placed in a greenhouse as described above and watered by sub-irrigation to prevent wash-off of the test compounds. After approximately 3 weeks, the condition of the test plants as compared with that of the untreated plants was determined visually and scored on a scale of 0 to 100 percent where 0 corresponds to no injury or growth inhibition and 100 corresponds to complete kill.
(§8) Colby's equation was used to determine the herbicidal effects expected from the mixtures (Colby, S. R. 1967. Calculation of the synergistic and antagonistic response of herbicide combinations. Weeds 15:20-22.).
(§9) The following equation was used to calculate the expected activity of mixtures containing two active ingredients, A and B: Expected=A+B−(A×B/100)
(§10) A=observed efficacy of active ingredient A at the same concentration as used in the mixture.
(§11) B=observed efficacy of active ingredient B at the same concentration as used in the mixture.

[2] = tested on: LEFCH Leptochloa chinensis (L.) Nees; sprangletop, Chinese; test: as above
From the text: as §1, §2, §3, §4, §5, §6, §7, §8, §9, §10, §11

[3] = tested on: DIGSA Digitaria sanguinalis (L.) Scop.; crabgrass, large; test: as above
From the text: as §1, §2, §3, §4, §5, §6, §7, §8, §9, §10, §11

[4] = tested on: ECHCG Echinochloa crus-galli (L.) Beauv.; barnyardgrass; test: as above
From the text: as §1, §2, §3, §4, §5, §6, §7, §8, §9, §10, §11

[5] = tested on: IPOHE Ipomoea hederacea Jacq.; morningglory, ivyleaf; test: as above
From the text: as §1, §2, §3, §4, §5, §6, §7, §8, §9, §10, §11

[6] = tested on: CYPDI Cyperus difformis L. sedge, smallflower umbrella; test: In-water applied greenhouse trial, weed control in transplanted paddy rice
Description: as §1
(§12) Weed seeds or nutlets of the desired test plant species were planted in puddled soil (mud) prepared by mixing a shredded, non-sterilized mineral soil (50.5 percent silt, 25.5 percent clay, and 24 percent sand, with a pH of about 7.6 and an organic matter content of about 2.9 percent) and water at a 1:1 volumetric ratio. The prepared mud was dispensed in 365 mL aliquots into 16-ounce (oz.) non-perforated plastic pots with a surface area of 86.59 square centimeters (cm^2) leaving a headspace of 3 centimeters (cm) in each pot. Rice seeds were planted in Sun Gro MetroMix® 306 planting mixture, which typically has a pH of 6.0 to 6.8 and an organic matter content of about 30 percent, in plastic plug trays. Seedlings at the second or third leaf stage of growth were transplanted into 860 mL of mud contained in 32-oz. non-perforated plastic pots with a surface area of 86.59 cm^2 4 days prior to herbicide application. The paddy was created by filling the headspace of the pots with 2.5 to 3 cm of water. When required to ensure good germination and healthy plants, a fungicide treatment and/or other chemical or physical treatment was applied. The plants were grown for 4-22 days in a greenhouse with an approximate 14 h photoperiod which was maintained at about 29° C. during the day and about 26° C. during the night. Nutrients were added as Osmocote® (17:6:10, N:P:K+minor nutrients) at 2 g per 16-oz. pot and 4 g per 32-oz. pot. Water was added on a regular basis to maintain the paddy flood, and supplemental lighting was provided with overhead metal halide 1000-Watt lamps as necessary. The plants were employed for testing when they reached the first through fourth true leaf stage.
as §3, with “(compound A)” for “(Compound A),”, “concentrate)” for “concentrate),”
(§13) Other herbicidal components were applied on an active ingredient basis and consisted of clomazone formulated as Command® 3ME.
(§14) Treatment requirements for each compound or herbicidal component were calculated based upon the rates being tested, the concentration of active ingredient or acid equivalent in the formulation, an application volume of 2 mL per component per pot, and an application area of 86.59 cm^2 per pot.
(§15) For formulated compounds, a measured amount was placed in an individual 100 or 200 mL glass vial and was dissolved in a volume of 1.25% (v/v) Agri-Dex® crop oil concentrate to obtain application solutions.
(§16) Applications were made by injecting appropriate amounts of the application solutions with a pipetter, individually and sequentially, into the aqueous layer of the paddy. Control plants were treated in the same manner with the solvent blank. Applications were made so that all treated plant material received the same concentrations of acetone and crop oil concentrate.
as §7, with “water was added as needed” for “watered by sub-irrigation”, “maintain a paddy flood.” for “prevent wash-off of the test compounds.”, “weeks” for “weeks,”
as §8, §9
(§17) A=observed efficacy of active ingredient A at the same concentration as used in the mixture. […]

[7] = tested on: SCPMA Bolboschoenus maritimus (L.) Palla clubrush, sea; test: as above
Description: as §1, §12
as §3, with “(compound A)” for “(Compound A),”, “concentrate)” for “concentrate),”
as §13, §14, §15, §16
as §7, with “water was added as needed” for “watered by sub-irrigation”, “maintain a paddy flood.” for “prevent wash-off of the test compounds.”, “weeks” for “weeks,”
as §8, §9, §17

[8] = tested on: CYPRO Cyperus rotundus L. nutsedge, purple; test: as above
Description: as §1, §12
as §3, with “(compound A)” for “(Compound A),”, “concentrate)” for “concentrate),”
as §13, §14, §15, §16
as §7, with “water was added as needed” for “watered by sub-irrigation”, “maintain a paddy flood.” for “prevent wash-off of the test compounds.”, “weeks” for “weeks,”
as §8, §9, §17

[9] = Compound A Benzyl Ester 0 gae/ha, Clomazone 56 gai/ha
[10] = Compound A Benzyl Ester 0 gae/ha, Clomazone 112 gai/ha
[11] = Compound A Benzyl Ester 0 gae/ha, Clomazone 224 gai/ha
[12] = Compound A Acid 0 gae/ha, Clomazone 112 gai/ha
[13] = Compound A Acid 0 gae/ha, Clomazone 224 gai/ha
[14] = Compound A Acid 0 gae/ha, Clomazone 448 gai/ha
[15] = Compound A Acid 17.5 gae/ha, Clomazone 0 gai/ha
[16] = Compound A Acid 4.38 gae/ha, Clomazone 0 gai/ha
[17] = Compound A Acid 8.75 gae/ha, Clomazone 0 gai/ha
[18] = Compound A Acid 16 gae/ha, Clomazone 0 gai/ha
[19] = Compound A Benzyl Ester 4.38 gae/ha, Clomazone 0 gai/ha
[20] = Compound A Benzyl Ester 17.5 gae/ha, Clomazone 0 gai/ha
[21] = Compound A Benzyl Ester 8 gae/ha, Clomazone 0 gai/ha
[22] = Compound A Benzyl Ester 16 gae/ha, Clomazone 0 gai/ha
[23] = Compound A Benzyl Ester 32 gae/ha, Clomazone 0 gai/ha

Structure (SMILES): CC1(C)CON(Cc2ccccc2Cl)C1=O [Clomazone, 2-[(2-chlorophenyl)methyl]-4,4-dimethyl-3-isoxazolidinone]
- Visual Weed Control (%) - 19 DAA Obs [1, 9]: 10%
- Visual Weed Control (%) - 19 DAA Obs [1, 10]: 10%
- Visual Weed Control (%) - 19 DAA Obs [1, 11]: 10%
- Visual Weed Control (%) - 19 DAA Obs ([2]; Table 1, Compound A Acid 0 gae/ha, Clomazone 56 gai/ha): 0%
- Visual Weed Control (%) - 19 DAA Obs ([2]; Table 1, Compound A Acid 0 gae/ha, Clomazone 112 gai/ha): 0%
- Visual Weed Control (%) - 19 DAA Obs ([2]; Table 1, Compound A Acid 0 gae/ha, Clomazone 224 gai/ha): 15%
- Visual Weed Control (%) - 19 DAA Obs ([2]; Table 2, Compound A Benzyl Ester 0 gae/ha, Clomazone 56 gai/ha): 0%
- Visual Weed Control (%) - 19 DAA Obs ([2]; Table 2, Compound A Benzyl Ester 0 gae/ha, Clomazone 112 gai/ha): 0%
- Visual Weed Control (%) - 19 DAA Obs ([2]; Table 2, Compound A Benzyl Ester 0 gae/ha, Clomazone 224 gai/ha): 15%
- Visual Weed Control (%) - 19 DAA Obs ([3]; Compound A Acid 0 gae/ha, Clomazone 56 gai/ha): 0%
- Visual Weed Control (%) - 19 DAA Obs [3, 12]: 0%
- Visual Weed Control (%) - 19 DAA Obs [3, 13]: 0%
- Visual Weed Control (%) - 19 DAA Obs [4, 9]: 10%
- Visual Weed Control (%) - 19 DAA Obs [4, 10]: 10%
- Visual Weed Control (%) - 19 DAA Obs [4, 11]: 10%
- Visual Weed Control (%) - 19 DAA Obs [5, 12]: 20%
- Visual Weed Control (%) - 19 DAA Obs [5, 13]: 20%
- Visual Weed Control (%) - 21 DAA Obs [6, 13]: 20%
- Visual Weed Control (%) - 21 DAA Obs [6, 14]: 40%
- Visual Weed Control (%) - 22 DAA Obs [7, 14]: 25%
- Visual Weed Control (%) - 21 DAA Obs [7, 10]: 0%
- Visual Weed Control (%) - 19 DAA Obs ([7]; Compound A Benzyl Ester 0 gae/ha, Clomazone 670 gai/ha): 0%
- Visual Weed Control (%) - 21 DAA Obs [8, 12]: 0%
- Visual Weed Control (%) - 21 DAA Obs ([8]; Compound A Benzyl Ester 0 gae/ha, Clomazone 448 gai/ha): 0%

Structure (SMILES): COc1c(Cl)ccc(-c2nc(C(=O)O)c(Cl)c(N)c2F)c1F [Compound A Acid, 4-amino-3-chloro-6-(4-chloro-2-fluoro-3-methoxyphenyl)-5-fluoropyridine-2-carboxylic acid]
- Visual Weed Control (%) - 19 DAA Obs [2, 15]: 55%
- Visual Weed Control (%) - 19 DAA Obs [3, 16]: 30%
- Visual Weed Control (%) - 19 DAA Obs [5, 16]: 0%
- Visual Weed Control (%) - 19 DAA Obs [5, 17]: 10%
- Visual Weed Control (%) - 21 DAA Obs [6, 18]: 30%
- Visual Weed Control (%) - 22 DAA Obs [7, 18]: 0%
- Visual Weed Control (%) - 22 DAA Obs ([7]; Compound A Acid 32 gae/ha, Clomazone 0 gai/ha): 0%
- Visual Weed Control (%) - 22 DAA Obs ([7]; Compound A Acid 64 gae/ha, Clomazone 0 gai/ha): 30%
- Visual Weed Control (%) - 21 DAA Obs [8, 17]: 0%
- Visual Weed Control (%) - 21 DAA Obs [8, 15]: 30%
- Visual Weed Control (%) - 21 DAA Obs ([8]; Compound A Acid 35 gae/ha, Clomazone 0 gai/ha): 85%

Structure (SMILES): COc1c(Cl)ccc(-c2nc(C(=O)OCc3ccccc3)c(Cl)c(N)c2F)c1F [Compound A Benzyl Ester]
- Visual Weed Control (%) - 19 DAA Obs [1, 19]: 65%
- Visual Weed Control (%) - 19 DAA Obs [2, 20]: 30%
- Visual Weed Control (%) - 19 DAA Obs [4, 19]: 55%
- Visual Weed Control (%) - 21 DAA Obs [7, 19]: 0%
- Visual Weed Control (%) - 19 DAA Obs [7, 21]: 0%
- Visual Weed Control (%) - 21 DAA Obs ([7]; Compound A Benzyl Ester 8.75 gae/ha, Clomazone 0 gai/ha): 0%
- Visual Weed Control (%) - 19 DAA Obs [7, 22]: 0%
- Visual Weed Control (%) - 21 DAA Obs [7, 20]: 0%
- Visual Weed Control (%) - 19 DAA Obs [7, 23]: 0%
- Visual Weed Control (%) - 21 DAA Obs [8, 21]: 70%
- Visual Weed Control (%) - 21 DAA Obs [8, 22]: 95%
- Visual Weed Control (%) - 21 DAA Obs [8, 23]: 90%
